≈ marks a conversion by molar mass, not a printed value. Values belong to the compound of their own block, whether it stands above or below them.
Legend:
[1] = tested on: Plasmodium falciparum; assay: Antimalarial activity against Plasmodium falciparum 3D7 at asexual erythrocytic stage assessed as parasite growth inhibition measured after 24 hrs by [3H]-hypoxanthine incorporation assay; type: functional, organism-based
[2] = tested on: Plasmodium falciparum; assay: Antimalarial activity against Plasmodium falciparum 3D7 infected in A+ human erythrocytes assessed as reduction in parasite growth incubated for 72 hrs by SYBR Green I staining based analysis; type: functional, organism-based; settings: 3D7, Erythrocyte
[3] = tested on: Plasmodium falciparum; assay: Antimalarial activity against Plasmodium falciparum; type: functional, organism-based
[4] = tested on: Plasmodium falciparum; assay: Antimalarial activity against Plasmodium falciparum Dd2 infected in A+ human erythrocytes assessed as reduction in parasite growth incubated for 72 hrs by SYBR Green I staining based analysis; type: functional, organism-based; settings: Dd2, Erythrocyte
[5] = tested on: Plasmodium falciparum; assay: Antimalarial activity against Plasmodium falciparum K1 infected in A+ human erythrocytes assessed as reduction in parasite growth incubated for 72 hrs by SYBR Green I staining based analysis; type: functional, organism-based; settings: K1, Erythrocyte
[6] = tested on: Plasmodium falciparum; assay: Antimalarial activity against CQ-resistant Plasmodium falciparum Dd2; type: functional, organism-based
[7] = Cytotoxicity against human erythrocytes; type: toxicity, cell-based, Erythrocyte
[8] = tested on: Plasmodium falciparum; assay: Antimalarial activity against Plasmodium falciparum assessed as parasite growth inhibition incubated for 36 to 40 hrs by JSB staining based analysis; type: functional, organism-based
[9] = tested on: Plasmodium falciparum; assay: Antimalarial activity against CQ-resistant Plasmodium falciparum K1; type: functional, organism-based

SMILES: Cc1cc(=O)oc2cc(OCc3cn(-c4ccc(S(N)(=O)=O)cc4)nn3)ccc12
- IC50 [1]: 3640 nM

SMILES: C[C@H]1[C@@H](OCc2cn(-c3ccnc4cc(Cl)ccc34)nn2)O[C@@H]2O[C@@]3(C)CC[C@H]4[C@H](C)CC[C@@H]1[C@@]24OO3
- EC50 [2]: 9 nM

SMILES: C[C@H]1[C@H](OC(=O)CCC(=O)OCc2cn(-c3ccnc4cc(Cl)ccc34)nn2)O[C@@H]2O[C@@]3(C)CC[C@H]4[C@H](C)CC[C@@H]1[C@@]24OO3
- EC50 [2]: 5.3 nM

- IC50 [3]: 1660 nM
SMILES: CC1=C(C(=O)Nc2ccccc2)C(c2ccc(OCc3cn(Cc4ccccc4)nn3)cc2)n2c(nc3ccccc32)N1 (centres undefined)

- IC50 [3]: 3120 nM
SMILES: CC1=C(C(=O)Nc2ccccc2)C(c2ccc(OCc3cn(Cc4ccccc4)nn3)cc2)n2ncnc2N1 (centres undefined)

- IC50 [3]: 2860 nM
SMILES: CC1=C(C(=O)Nc2ccc(C(F)(F)F)cc2)C(c2ccc(OCc3cn(Cc4ccccc4)nn3)cc2)n2c(nc3ccccc32)N1 (centres undefined)

SMILES: CCCCc1nc(C)c2ccc(-c3cn(CCOC(=O)CCC(=O)O[C@@H]4O[C@@H]5O[C@@]6(C)CC[C@H]7[C@H](C)CC[C@@H]([C@H]4C)[C@@]57OO6)nn3)cc2c1CCCC
- EC50 [2]: 9.2 nM
- EC50 [4]: 10 nM
- EC50 [5]: 4.2 nM

- IC50 [3]: 3120 nM
SMILES: CC1=C(C(=O)Nc2cccc(Cl)c2)C(c2ccc(OCc3cn(Cc4ccccc4)nn3)cc2)n2c(nc3ccccc32)N1 (centres undefined)

- IC50 [3]: 1680 nM
SMILES: CC1=C(C(=O)Nc2ccc(Cl)cc2)C(c2ccc(OCc3cn(Cc4ccccc4)nn3)cc2)n2ncnc2N1 (centres undefined)

SMILES: O=[N+]([O-])c1cccc(Cn2cc(CO)nn2)c1
- IC50 [6]: 0.64 µg/mL (≈ 2.73 µM)
- CC50 [7]: 87.4 µg/mL (≈ 373 µM)

SMILES: O=c1cc(OCc2cn(-c3ccc(OCc4cccc([N+](=O)[O-])c4)cc3)nn2)c2ccccc2o1
- IC50 [8]: 0.6 µg/mL (≈ 1.28 µM)

- IC50 [3]: 2110 nM
SMILES: CC1=C(C(=O)Nc2ccccc2Cl)C(c2ccc(OCc3cn(Cc4ccccc4)nn3)cc2)n2c(nc3ccccc32)N1 (centres undefined)

SMILES: O=c1cc(OCc2cn(-c3ccc(OCc4ccccc4[N+](=O)[O-])cc3)nn2)c2ccccc2o1
- IC50 [8]: 0.98 µg/mL (≈ 2.08 µM)

SMILES: Cc1cc(C)nc(NS(=O)(=O)c2ccc(-n3cc(COc4cc5oc(=O)cc(C)c5cc4Cl)nn3)cc2)n1
- IC50 [1]: 18100 nM

SMILES: O=c1ccc2ccc(OCc3cn(-c4ccc(S(=O)(=O)N5CCOCC5)cc4)nn3)cc2o1
- IC50 [1]: > 85500 nM

- IC50 [3]: 1680 nM
SMILES: CC1=C(C(=O)Nc2ccccc2Cl)C(c2ccc(OCc3cn(Cc4ccccc4)nn3)cc2)n2ncnc2N1 (centres undefined)

- IC50 [3]: 184 nM
SMILES: O=C(Cn1cc(CSc2ccc(Br)cc2)nn1)OCc1ccc([N+](=O)[O-])cc1

SMILES: Cc1ccccc1COc1ccc(-n2cc(COc3cc(=O)oc4ccccc34)nn2)cc1
- IC50 [8]: 0.53 µg/mL (≈ 1.21 µM)

SMILES: Cc1cccc(COc2ccc(-n3cc(COc4cc(=O)oc5ccccc45)nn3)cc2)c1
- IC50 [8]: 1.05 µg/mL (≈ 2.39 µM)

- IC50 [3]: 178 nM
SMILES: COc1ccc(COC(=O)Cn2cc(CSc3ccc(Br)cc3)nn2)cc1

SMILES: C[C@H]1[C@H](OC(=O)CCC(=O)OCCc2cn(-c3ccnc4cc(Cl)ccc34)nn2)O[C@@H]2O[C@@]3(C)CC[C@H]4[C@H](C)CC[C@@H]1[C@@]24OO3
- EC50 [2]: 8 nM
- EC50 [4]: 4.9 nM
- EC50 [5]: 2.6 nM

- IC50 [3]: 820 nM
SMILES: CC1=C(C(=O)Nc2ccc(C(F)(F)F)cc2)C(c2ccc(OCc3cn(Cc4ccccc4)nn3)cc2)n2ncnc2N1 (centres undefined)

SMILES: C[C@H]1[C@H](OCc2cn(-c3ccnc4cc(Cl)ccc34)nn2)O[C@@H]2O[C@@]3(C)CC[C@H]4[C@H](C)CC[C@@H]1[C@@]24OO3
- EC50 [2]: 27.5 nM
- EC50 [4]: 10.6 nM
- EC50 [5]: 5.9 nM

SMILES: C[C@H]1[C@@H](OCCCn2cc(-c3ccnc4cc(Cl)ccc34)nn2)O[C@@H]2O[C@@]3(C)CC[C@H]4[C@H](C)CC[C@@H]1[C@@]24OO3
- EC50 [2]: 9.4 nM
- EC50 [4]: 5.2 nM
- EC50 [5]: 3.8 nM

- IC50 [3]: 1920 nM
SMILES: CC1=C(C(=O)Nc2ccc(C)cc2)C(c2ccc(OCc3cn(Cc4ccccc4)nn3)cc2)n2c(nc3ccccc32)N1 (centres undefined)

SMILES: OCc1cn(Cc2ccc(Cl)cc2)nn1
- IC50 [6]: 22.1 µg/mL (≈ 98.9 µM)
- CC50 [7]: 88.6 µg/mL (≈ 396 µM)

SMILES: O=[N+]([O-])c1ccc(Cn2cc(-c3ccccc3CBr)nn2)cc1
- IC50 [6]: > 100 µg/mL
- CC50 [7]: > 100 µg/mL

SMILES: CO[C@@H]1C(=O)N(c2ccc(OCc3cn(Cc4ccccc4)nn3)cc2)[C@@H]1c1ccc(OCc2cn(Cc3ccccc3)nn2)cc1
- IC50 [9]: 850 nM

SMILES: O=[N+]([O-])c1ccc(Cn2cc(-c3ccccc3CO)nn2)cc1
- IC50 [6]: > 100 µg/mL
- CC50 [7]: 33.3 µg/mL (≈ 107 µM)

SMILES: O=c1ccc2ccc(OCc3cn(-c4ccc(OCc5ccc(F)cc5)cc4)nn3)cc2o1
- IC50 [8]: 0.49 µg/mL (≈ 1.11 µM)

SMILES: O=c1ccc2ccc(OCc3cn(-c4ccc(OCc5ccc(Cl)cc5)cc4)nn3)cc2o1
- IC50 [8]: 0.86 µg/mL (≈ 1.87 µM)

SMILES: O=C1[C@@H](Oc2ccc(Cl)cc2Cl)[C@@H](c2ccc(OCc3cn(Cc4ccccc4)nn3)cc2)N1c1ccc(OCc2cn(Cc3ccccc3)nn2)cc1
- IC50 [9]: < 970 nM
